Measured values as given in ChEMBL document CHEMBL5614420, “Development of peptoid-based heteroaryl-decorated histone deacetylase (HDAC) inhibitors with dual-stage antiplasmodial activity” (Eur J Med Chem, 2024).
pIC50: −log10 of the molar value.

Legend:
[1] = Selectivity index, ratio of IC50 for HEK293 cells to IC50 for multidrug-resistant asexual ring-stage Plasmodium falciparum Dd2 infected in erythrocytes; conditions: human
[2] = in vitro; conditions: human, liver microsomes
[3] = system: Plasmodium falciparum; assay: Resistance index, ratio of IC50 for multidrug-resistant asexual ring-stage Plasmodium falciparum Dd2 infected in erythrocytes to IC50 for CQ-sensitive asexual ring-stage Plasmodium falciparum 3D7 infected in erythrocytes; format: functional
[4] = Cytotoxicity against HEK293 cells incubated for 24 hrs by Neutral Red Uptake assay; conditions: human
[5] = Selectivity index, ratio of IC50 for HEK293 cells to IC50 for exo-erythrocytic stage Plasmodium berghei sporozoites expressing GFP-Luc fused genes infected in human HepG2-A16-CD81 cells expressing EGFP; format: toxicity, cell-based; conditions: read-out: Ratio IC50
[6] = in vitro; conditions: human, liver microsomes; remark: listed apart in the source
[7] = Selectivity index, ratio of IC50 for HEK293 cells to IC50 for CQ-sensitive asexual ring-stage Plasmodium falciparum 3D7 infected in erythrocytes; conditions: human
[8] = system: Plasmodium berghei; assay: Antiplasmodial activity against exo-erythrocytic stage Plasmodium berghei sporozoites expressing ANKA-GFPLuc-SMCON infected in human HepG2-A16-CD81 cells expressing EGFP assessed as parasitic growth inhibition by […]; format: functional, organism-based
[9] = system: Plasmodium falciparum; assay: Antiplasmodial activity against CQ-sensitive asexual ring-stage Plasmodium falciparum 3D7 infected in erythrocytes assessed as parasitic growth inhibition measured after 72 hrs by ELISA; format: functional, organism-based; conditions: 3D7, Erythrocyte
[10] = system: Plasmodium falciparum; assay: Antiplasmodial activity against multidrug-resistant asexual ring-stage Plasmodium falciparum Dd2 infected in erythrocytes assessed as parasitic growth inhibition measured after 72 hrs by ELISA; format: functional, organism-based; conditions: Dd2, Erythrocyte
[11] = system: Plasmodium berghei; assay: Antiplasmodial activity against exo-erythrocytic stage Plasmodium berghei sporozoites expressing GFP-Luc fused genes infected in human HepG2-A16-CD81 cells expressing EGFP assessed as parasitic growth inhibition measured for 20 hrs by Bright-Glo Luciferase Assay; format: functional, organism-based; conditions: HepG2-A16-CD81, 20 h
[12] = Cytotoxicity against human NFF cells incubated for 72 hrs by SRB assay
[13] = Selectivity index, ratio of IC50 for human NFF cells to IC50 for synchronous ring-stage Plasmodium falciparum 3D7 infected in human erythrocytes
[14] = system: Plasmodium falciparum; assay: Antiplasmodial activity against synchronous ring-stage Plasmodium falciparum 3D7 infected in human erythrocytes assessed as parasitic growth inhibition measured after 48 hrs by [3H]hypoxanthine incorporation assay; format: functional, organism-based; conditions: 3D7, Erythrocyte
[15] = system: Plasmodium falciparum; assay: Antiplasmodial activity against synchronous ring-stage Plasmodium falciparum Dd2 infected in human erythrocytes assessed as parasitic growth inhibition measured after 48 hrs by [3H]hypoxanthine incorporation assay; format: functional, organism-based; conditions: Dd2, Erythrocyte

In the case of `CC(C)c1ccc(C(=O)N(CC(=O)NCc2ccccc2)Cc2ccc(C(=O)NO)cc2)cc1`, the selectivity ratio [1] was 284, the half-life at 1 h, 1 µM [2] was 12.4 min and the “Ratio IC50” value [3] was 4. It also gave an IC50 at 24 h [4] of 69000 nM, a selectivity ratio [5] of 4310 and a microsomal CLint at 1 h, 1 µM [6] of 112 µL/min/mg. It also gave a selectivity ratio [7] of 1100, a pIC50 [8] of 7.80 and a pIC50 [9] of 7.20. For the same compound, the pIC50 [10] was 6.61.
Work on `O=C1C(O)=C([C@H]2CC[C@H](c3ccc(Cl)cc3)CC2)C(=O)c2ccccc21` [ATOVAQUONE] yielded a pIC50 [11] of over 10.29.
Work on `O=C(/C=C/c1cccc(S(=O)(=O)Nc2ccccc2)c1)NO` [BELINOSTAT] yielded an IC50 at 72 h [12] of 2370 nM, a selectivity ratio [13] of 40 and a pIC50 [14] of 7.22. It also gave a pIC50 [15] of 6.89.
With `CCN(CC)CCCC(C)Nc1ccnc2cc(Cl)ccc12` (configuration not stated) [CHLOROQUINE] the IC50 at 24 h [4] was 265000 nM.
`Cc1[nH]c2ccccc2c1CCNCc1ccc(/C=C/C(=O)NO)cc1` [PANOBINOSTAT] gave an IC50 at 72 h [12] of 70 nM, a selectivity ratio [13] of 7 and a pIC50 [14] of 8.00. For the same compound, the pIC50 [15] was 7.52.
For `C/C=C1\NC(=O)[C@H]2CSSCC/C=C/[C@H](CC(=O)N[C@H](C(C)C)C(=O)N2)OC(=O)[C@H](C(C)C)NC1=O` [ROMIDEPSIN], the IC50 at 72 h [12] was 1 nM and the selectivity ratio [13] was under 1.
